According to paper PMC10861881 (Proceedings of the National Academy of Sciences of the …, 2024):
In brackets after ≈: the same amount, converted by molar mass.

Key:
MEK5 = conditions: test concentration 500 nmol/L; cited from earlier work
[1] = Hepatocyte intrinsic clearance, cynomolgus monkey; type: in vitro ADME; conditions: hepatocytes
pFGFR2 (Y653/654) = experiment: Tumor PD; type: in vivo, mouse; conditions: SNU-16 xenograft, BALB/c nude mice, oral 5 and 10 mg/kg twice daily groups, 2 h postdose
[2] = PK study IV/PO, cynomolgus monkey; type: in vivo
[3] = Hepatocyte intrinsic clearance, human; type: in vitro ADME; conditions: hepatocytes
[4] = Hepatocyte intrinsic clearance, rat; type: in vitro ADME; conditions: hepatocytes
[5] = Stability in plasma and blood; type: in vitro ADME; conditions: plasma of all species, 5 μM, 37 °C, 18 h
PK study IV/PO, mouse = type: in vivo
[6] = Hepatocyte intrinsic clearance, mouse; type: in vitro ADME; conditions: hepatocytes
[7] = Plasma protein binding, human; type: in vitro ADME; conditions: pooled plasma
CACO2 permeability = conditions: human, Caco-2
[8] = Plasma protein binding, cynomolgus monkey; type: in vitro ADME; conditions: pooled plasma
[9] = Plasma protein binding, rat; type: in vitro ADME; conditions: Sprague-Dawley, pooled plasma
ELogD = type: physicochemical; conditions: pH 7.4
MKNK2 = conditions: test concentration 500 nmol/L; cited from earlier work
[10] = Hepatocyte intrinsic clearance, dog; type: in vitro ADME; conditions: hepatocytes
[11] = Plasma protein binding, dog; type: in vitro ADME; conditions: beagle, pooled plasma
[12] = test system: FGFR2 fusion-positive cholangiocarcinoma; conditions: patients, across dose levels; cited from earlier work
[13] = Thermodynamic solubility FaSSIF/SGF; type: physicochemical; conditions: thermodynamic from solid
PK study IV/PO, dog = type: in vivo
[14] = test system: p-ERK (Tyr202/204) in SNU-16 cells; experiment: SNU-16 cellular PD assay, p-ERK HTRF; type: cell-based; conditions: Homo sapiens, SNU-16, 2 h, read-out: SNU16 PD IC50
PK study IV/PO, rat = type: in vivo
[15] = Plasma protein binding, mouse; type: in vitro ADME; conditions: pooled plasma

hepatocyte CLint [1]: 6.5 µL/min/1e6 cells
IV CLu cynomolgus monkey ([2]; IV, unbound): 1,100 mL/min/kg
Vd ([2]; plasma, iv): 0.26 L/kg
clearance ([2]; plasma, iv): 0.132 L/h/kg
half-life ([2]; plasma, iv): 84 min
bioavailability ([2]; plasma, po): 47%
hepatocyte CLint [3]: < 1 µL/min/1e6 cells
hepatocyte CLint [4]: 30 µL/min/1e6 cells
stability in plasma under PPB assay conditions [5]: stable
Vd (PK study IV/PO, mouse; BALB/c nude, plasma, iv): 0.42 L/kg
clearance (PK study IV/PO, mouse; BALB/c nude, plasma, iv): 0.264 L/h/kg
half-life (PK study IV/PO, mouse; BALB/c nude, plasma, iv): 66 min
bioavailability (PK study IV/PO, mouse; BALB/c nude, plasma, po): 58%
IV CLu mouse (PK study IV/PO, mouse; IV, unbound): 32.3 L/h/kg
hepatocyte CLint [6]: 29 µL/min/1e6 cells
fraction unbound at 18 h, 5 μM [7]: 0.0014
Papp A→B (CACO2 permeability): 53 nm/s
Papp B→A (CACO2 permeability): 68 nm/s
fraction unbound at 18 h, 5 μM [8]: 0.002
fraction unbound at 18 h, 5 μM [9]: 0.016
ELogD@7.4 (ELogD): 4.3/510
hepatocyte CLint [10]: 19 µL/min/1e6 cells
fraction unbound at 18 h, 5 μM [11]: 0.023
solubility ([13]; FaSSIF): 49.3 µM (≈ 25.1 µg/mL)
solubility ([13]; SGF, simulated gastric fluid): 540 µM (≈ 275 µg/mL)
IV CLu dog (PK study IV/PO, dog; IV, unbound): 1,200 mL/min/kg
Vd (PK study IV/PO, dog; beagle, plasma, iv): 1.3 L/kg
clearance (PK study IV/PO, dog; beagle, plasma, iv): 1.68 L/h/kg
half-life (PK study IV/PO, dog; beagle, plasma, iv): 33 min
bioavailability (PK study IV/PO, dog; beagle, plasma, po): 53%
IC50 [14]: 3 nM
IV CLu rat (PK study IV/PO, rat; IV, unbound): 3,813 mL/min/kg
Vd (PK study IV/PO, rat; Sprague-Dawley, in vivo, iv): 0.98 L/kg
half-life (PK study IV/PO, rat; Sprague-Dawley, in vivo, iv): 11.4 min
bioavailability (PK study IV/PO, rat; Sprague-Dawley, in vivo, po): 18%
fraction unbound at 18 h, 5 μM [15]: 0.0082
Compound: C=C(C)C(=O)Nc1ccc(-c2c(-c3ccc(Oc4nccc(C)n4)c(F)c3)c3c(N)ncnc3n2C)cc1 [Lirafugratinib]
inhibition of MEK5 in kinome panel (MEK5): 92.4%
modulation of phosphorylated FGFR2 (pFGFR2) in tumor (pFGFR2 (Y653/654)): complete suppression
inhibition of MKNK2 in kinome panel (MKNK2): 89%
adverse effects occurring with treatment [12]: minimal hyperphosphatemia and diarrhea
